Test results as given in patent US20100323950A1, “USE OF BETA-MELANOTROPIN AS A THERAPEUTIC AGENT, EG FOR THE TREATMENT OF AIDS OR ALZHEIMER” (priority 2007, published 2010).

Assays:
[1] = tested on: MRSA; settings: 5 micrograms per ml
[2] = tested on: Pseudomonas aeruginosa; settings: 5 micrograms per ml
[3] = tested on: Streptococcus pneumoniae; settings: 5 micrograms per ml
[4] = in vitro; settings: human, MRC-5 cells (human embryonal lung fibroblasts)
[5] = Cytotoxicity (dye uptake cell viability) in HepG2-2.2.15 cells; settings: human

## CSCC[C@H](NC(=O)[C@H](CCCNC(=N)N)NC(=O)[C@H](Cc1ccc(O)cc1)NC(=O)[C@@H]1CCCN1C(=O)CNC(=O)[C@H](CCC(=O)O)NC(=O)[C@H](CC(=O)O)NC(=O)[C@H](CCCCN)NC(=O)[C@H](CCCCN)NC(=O)[C@H](CCC(=O)O)NC(=O)[C@H](C)N)C(=O)N[C@@H](CCC(=O)O)C(=O)N[C@@H](Cc1c[nH]cn1)C(=O)N[C@@H](Cc1ccccc1)C(=O)N[C@@H](CCCNC(=N)N)C(=O)N[C@@H](Cc1c[nH]c2ccccc12)C(=O)NCC(=O)N[C@@H](CO)C(=O)N1CCC[C@H]1C(=O)N1CCC[C@H]1C(=O)N[C@@H](CCCCN)C(=O)N[C@@H](CC(=O)O)C(=O)O [Beta MSH]
[1]
  % inhibition: 0.0%
[2]
  % inhibition: 0.0%
[3]
  % inhibition: 0.0%
[4]
  viability at 144 h: 100%
[5]
  viability at 144 h, 10 micrograms per ml: 100%
